Here are results for two molecules from US20090172831A1, “Methods for the production of plants resistant to HPPD herbicides” (Syngenta Limited, priority 2000, published 2009).

The target of this experiment is T1, Arabidopsis HPPD (Arabidopsis thaliana, UniProt P93836).
T1 construct: made in house; host or cells: E. coli BL21 (DE3) codon+ RP
T1 sequence (P93836 1-445): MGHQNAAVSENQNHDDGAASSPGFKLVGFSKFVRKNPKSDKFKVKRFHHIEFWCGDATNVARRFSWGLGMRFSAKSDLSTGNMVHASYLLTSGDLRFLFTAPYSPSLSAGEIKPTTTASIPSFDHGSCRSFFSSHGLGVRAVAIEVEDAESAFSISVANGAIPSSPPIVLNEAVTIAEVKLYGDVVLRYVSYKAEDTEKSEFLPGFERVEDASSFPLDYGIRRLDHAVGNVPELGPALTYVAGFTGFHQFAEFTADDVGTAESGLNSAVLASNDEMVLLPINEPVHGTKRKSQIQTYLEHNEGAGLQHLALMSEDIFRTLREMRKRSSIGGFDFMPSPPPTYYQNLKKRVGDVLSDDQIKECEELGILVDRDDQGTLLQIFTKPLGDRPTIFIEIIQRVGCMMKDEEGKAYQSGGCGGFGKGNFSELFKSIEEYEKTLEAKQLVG
Nature of the experiment: Rate of binding (kon) by radiolabelled inhibitor and separation of bound from free. An excerpt: Alternatively estimates of kon values can be determined more directly by mixing HPPD with radio or otherwise labelled herbicide inhibitor and monitoring the progress of the binding reaction, optionally by rapidly isolating the enzyme inhibitor complex and/or by any one of a number of methods (for example fluorimetry, EPR, NMR, radiodetection etc). For example, the reaction with HPPD may be started by addition of radiolabelled herbicide, allowed to proceed for a series of different times and rapidly quenched by addition and mixing with a large excess of unlabelled inhibitor. In this case the extent of binding at different times may, for example, be monitored by using ultrafiltration, binding to filters or gel filtration to separate radiolabel-bound to HPPD from unbound label which fractions can then each be quantitated by scintillation counting. […]
The measurements of koff are based on physical rather than assay-based measurements. Similarly, kon rates can also be measured by a direct physical method, in this case the use of radiolabelled inhibitor and physical separation of protein bound from free inhibitor. […] The rates of binding determined on the basis of measurement of the amount of radiolabelled inhibitor bound after various times of reaction are found to correlate very well with measurements based upon assay-based measurements of the rate of decline of enzyme activity. […]

By kon is commonly meant the rate constant with which the complex forms.

As for `CS(=O)(=O)c1ccc(C(=O)C2C(=O)CCCC2=O)c([N+](=O)[O-])c1` [Structure I, 2-(Nitro-4-methanesulphonylbenzoyl)-cyclohexane-1,3-dione, reference compound], the “rate constant of subsequent much slower binding to the remaining site” value (25% v/v glycerol) is around 1000 M⁻¹ s⁻¹.

Turning to `Cc1nc(C(F)(F)F)ccc1C(=O)C1C(=O)C2CCC(C2)C1=O` (centres unmarked) [Structure II], the kon (without 25% v/v glycerol) came out at 800000 M⁻¹ s⁻¹.
